Results taken from patent publication US7691965B2, “Helical synthetic peptides that stimulate cellular cholesterol efflux” (The Regents of the University of California, priority 2002, dated 2010).
Where a SMILES comes first, the peptide text is derived from it.

Columns and labels:
ABCA1 [1] = target: T1, ABCA1 (Mus musculus, UniProt P41233); test: Cellular cholesterol efflux from [3H]cholesterol-labeled J774 macrophages with and without cAMP analog; format: cell-based; set-up: endogenous in cells; host or cells: J774 macrophages treated with a cAMP analog (CPT-cAMP or 8-bromo-cAMP); conditions: lipid-free acceptor, J774 macrophages with vs without cAMP analog
T1 sequence (P41233 whole entry): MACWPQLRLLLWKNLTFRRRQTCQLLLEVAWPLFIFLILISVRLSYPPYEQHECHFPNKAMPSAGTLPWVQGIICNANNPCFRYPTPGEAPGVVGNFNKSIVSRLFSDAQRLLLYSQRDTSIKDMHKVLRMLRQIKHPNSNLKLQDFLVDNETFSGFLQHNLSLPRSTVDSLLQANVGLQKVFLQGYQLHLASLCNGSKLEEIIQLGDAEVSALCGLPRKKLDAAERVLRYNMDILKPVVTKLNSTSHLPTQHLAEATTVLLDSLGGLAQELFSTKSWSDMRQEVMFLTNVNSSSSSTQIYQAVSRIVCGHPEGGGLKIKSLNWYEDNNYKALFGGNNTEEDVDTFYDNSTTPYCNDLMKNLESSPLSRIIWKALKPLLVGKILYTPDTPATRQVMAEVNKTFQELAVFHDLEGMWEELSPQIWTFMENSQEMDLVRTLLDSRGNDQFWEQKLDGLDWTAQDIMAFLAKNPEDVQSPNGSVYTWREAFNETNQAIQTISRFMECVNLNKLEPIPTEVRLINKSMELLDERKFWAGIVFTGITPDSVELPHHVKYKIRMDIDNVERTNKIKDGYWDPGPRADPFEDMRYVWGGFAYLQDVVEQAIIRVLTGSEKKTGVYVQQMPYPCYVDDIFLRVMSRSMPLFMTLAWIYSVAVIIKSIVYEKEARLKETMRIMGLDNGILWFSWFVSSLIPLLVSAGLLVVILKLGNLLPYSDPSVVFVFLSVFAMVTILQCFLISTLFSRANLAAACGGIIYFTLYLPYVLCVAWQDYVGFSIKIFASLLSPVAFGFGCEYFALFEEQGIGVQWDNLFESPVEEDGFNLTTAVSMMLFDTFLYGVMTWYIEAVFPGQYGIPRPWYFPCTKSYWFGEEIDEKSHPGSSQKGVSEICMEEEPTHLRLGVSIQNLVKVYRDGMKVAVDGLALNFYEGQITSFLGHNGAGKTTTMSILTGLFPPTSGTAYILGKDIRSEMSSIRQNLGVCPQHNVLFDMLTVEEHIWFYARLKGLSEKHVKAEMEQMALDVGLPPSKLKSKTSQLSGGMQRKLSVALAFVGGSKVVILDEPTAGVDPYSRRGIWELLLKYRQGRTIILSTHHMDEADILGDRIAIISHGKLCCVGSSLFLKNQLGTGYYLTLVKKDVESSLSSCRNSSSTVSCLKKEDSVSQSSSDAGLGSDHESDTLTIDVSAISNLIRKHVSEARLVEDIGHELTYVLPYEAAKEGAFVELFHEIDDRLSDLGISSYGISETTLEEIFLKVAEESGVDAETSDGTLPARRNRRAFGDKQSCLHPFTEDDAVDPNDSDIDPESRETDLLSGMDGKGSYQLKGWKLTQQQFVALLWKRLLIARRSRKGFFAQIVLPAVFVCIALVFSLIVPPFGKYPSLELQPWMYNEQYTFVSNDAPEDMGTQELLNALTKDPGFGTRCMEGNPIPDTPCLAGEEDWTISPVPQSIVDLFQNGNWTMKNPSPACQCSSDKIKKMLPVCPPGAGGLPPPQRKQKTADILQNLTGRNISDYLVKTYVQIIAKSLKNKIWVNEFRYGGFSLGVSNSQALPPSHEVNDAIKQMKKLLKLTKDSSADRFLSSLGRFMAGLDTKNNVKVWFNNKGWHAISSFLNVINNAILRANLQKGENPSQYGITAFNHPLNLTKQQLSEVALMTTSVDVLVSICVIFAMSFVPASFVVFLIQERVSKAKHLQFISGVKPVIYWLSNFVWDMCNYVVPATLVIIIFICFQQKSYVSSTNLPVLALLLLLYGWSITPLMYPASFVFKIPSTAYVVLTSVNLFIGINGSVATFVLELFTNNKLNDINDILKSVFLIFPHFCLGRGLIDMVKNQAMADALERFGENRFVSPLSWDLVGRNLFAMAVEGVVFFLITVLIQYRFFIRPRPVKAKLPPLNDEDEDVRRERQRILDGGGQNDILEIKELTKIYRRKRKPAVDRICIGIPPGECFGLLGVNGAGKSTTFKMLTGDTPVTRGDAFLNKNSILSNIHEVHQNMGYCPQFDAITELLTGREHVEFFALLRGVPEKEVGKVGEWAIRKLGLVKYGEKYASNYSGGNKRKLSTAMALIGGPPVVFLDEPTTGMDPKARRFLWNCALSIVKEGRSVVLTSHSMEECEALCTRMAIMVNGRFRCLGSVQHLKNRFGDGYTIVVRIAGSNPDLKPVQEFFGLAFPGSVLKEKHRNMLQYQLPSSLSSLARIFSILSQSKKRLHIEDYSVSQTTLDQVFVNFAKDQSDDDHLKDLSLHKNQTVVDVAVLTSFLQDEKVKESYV
Text: Suitable cholesterol efflux assays are described in, e.g., Bielicki, J. K and Oda, M. N., Biochemistry, 41:2089-2096 (2002); Jia, Z. et al., Biochem. Biophys. Res. Common., 297:206-213 (2002). In some embodiments, a polypeptide known to mediate cholesterol efflux (e.g., helix 9/10 of Apo A-I) is used to screen for additional mediators of cholesterol efflux in a cell based assay. For example, cell lines in which cholesterol efflux can be enhanced using a cAMP analog that up-regulates ABCA1 protein expression (e.g., J774 macrophages) can conveniently be used to assess the ability of an Apo A-I, Apo A-II, Apo A-IV, Apo E, Apo C-I, Apo C-II, Apo C-III, or Serum Amyloid A peptide to mediate cholesterol efflux. The cells are incubated with labeled cholesterol (e.g., [^3H]cholesterol) under conditions appropriate for cholesterol uptake by the cells. cAMP or cAMP analogs (e.g., CPT-cAMP) is incubated with the cells for a suitable time before the initiation of cellular cholesterol efflux, i.e., prior to contacting the cells with helix 9/10 of Apo A-I or the test compound. Measurement of labeled cholesterol appearing in the medium is used to determine the cholesterol efflux mediating activity of the test compound.
Cellular Cholesterol Efflux Protocol—J774 macrophages were used to assess the cholesterol efflux properties of synthetic amphipathic α-helical peptides (Bielicki, J. K and Oda, M. N., Biochemistry, 41:2089-2096 (2002); Jia, Z. et al., Biochem. Biophys. Res. Common., 297:206-213 (2002)). This cell line was chosen because cholesterol efflux can be enhanced using a cAMP analog that up-regulates ABCA1 protein expression. The cells were seeded onto 24-well culture plates and labeled for 48 h with [^3H]cholesterol in RPMI 1640 supplemented with 1% fetal bovine serum. The cAMP analog CPT-cAMP was added (0.3 mM, final concentration) to the cells at least 12 h before the initiation of cellular cholesterol efflux. Synthetic peptides in lipid-free form were added to cells in serum-free RPMI. The lipid-free form of full-length recombinant apoA-I was used as a positive control to define apparent ABCA1-dependent cholesterol efflux in the presence and absence of cAMP stimulation. Efflux results were expressed as a percentage of the initial cellular [^3H] appearing in the medium as a function of time subtracting the background efflux obtained using serum-free medium alone.

[2] = Relative lipid binding affinity by surface balance technique (monolayer exclusion pressure); format: physicochemical; conditions: surface balance technique
Text: Relative Lipid Binding Affinity, Hydrophobicity, and Amphiphilicity of Synthetic Peptides—In some experiments, the relative lipid binding affinity of unique peptides was quantified using a surface balance technique (Gillotte, K L. et al., J. Biol. Chem., 274:2021-2028 (1999)). For routine analyses, a turbid solution of dimyristoylphosphatidylcholine (DMPC) was used to assess the relative capacity of synthetic peptides to solubilize phospholipid as described (Palgunachari, M. N. et al., Arterioscler. Thromb. Vasc. Biol., 16:328-338 (1996); McLean, L. R. and Hagaman, K. A., Biochim. Biophys. Acta, 1167:289-295 (1993)). The DMPC was used at a final concentration of 0.08 mg/ml in 10 mM Tris-saline (pH 7.4). The final weight ratio of peptides relative to DMPC was 1:1. The absorbance (400 nm) of samples was monitored continuously over a period of 30 min at 25° C. Hydrophobicity of helical peptides was calculated using the consensus scale (Eisenberg D., Annu. Rev. Biochem., 53:593-623 (1984)). The hydrophobic moment (kcal/mol) of synthetic peptides, which is a measure of helix amphiphilicity, was calculated as described by Eisenberg et al. (Eisenberg, D. et al., Nature, 299:371-374 (1982)).

ABCA1 [3] = target: T1, ABCA1; test: ABCA1 stabilization: immunoblot of ABCA1 protein in J774 macrophage membranes after cAMP withdrawal; format: cell-based; set-up: J774 macrophages were used to assess relative ABCA1 protein levels in the presence and absence of synthetic peptides; endogenous in cells; host or cells: J774 macrophages treated with a cAMP analog (CPT-cAMP or 8-bromo-cAMP); conditions: 20 μg/ml peptide, 6 h without cAMP, J774 macrophages
Protocol: J774 macrophages were incubated (18 h) with 0.5 mM 8-bromo-cAMP in medium containing 0.1% bovine serum albumin to up-regulate ABCA1 protein expression. Washed cells were subsequently exposed for 6 h to bovine serum albumin medium with (+) or without (−) 8-bromo-cAMP and the indicated synthetic peptides (20 μg/ml). None refers to no peptides. The cellular membrane content of ABCA1 protein was measured by immunoblot analysis.
ABCA1 Stabilization—J774 macrophages were used to assess relative ABCA1 protein levels in the presence and absence of synthetic peptides. Cells were grown in 10% fetal bovine serum, extensively rinsed, and incubated (18 h) with Dulbecco's modified Eagle's medium containing 0.1% bovine serum albumin plus the cAMP analog 8-bromo-cAMP. Cells were next exposed to synthetic peptides or serum-free medium in the absence of the cAMP stimulus to evaluate whether ABCA1 protein was stabilized or degraded. Relative levels of ABCA1 protein were assessed by immunoblot analysis of cell membranes (Oram, J. F. et al., J. Biol. Chem., 278:52379-52385 (2003)). ABCA1 was visualized using an enhanced chemiluminescence detection assay.
To assess ABCA1 stabilization, J774 macrophages were treated with a cAMP analog to up-regulate ABCA1 protein expression and then incubated for 6 h without cAMP. In the absence of inducer, ABCA1 protein is rapidly degraded in these cells (FIG. 9). […] Thus, it appears that the helical combinations that stimulate cholesterol efflux also stabilize the ABCA1 transporter.

| Molecule | ABCA1-dependent cholesterol efflux (result in words) (ABCA1 [1]) | Monolayer exclusion pressure [2] [dynes/cm] | ABCA1 stabilization (result in words) (ABCA1 [3]) | also measured |
| --- | --- | --- | --- | --- |
| CSCC[C@H](NC(=O)[C@H](CCC(=O)O)NC(=O)[C@H](CCC(N)=O)NC(=O)[C@H](CCCNC(=N)N)NC(=O)[C@H](CC(C)C)NC(=O)CNC(=O)[C@H](CCC(=O)O)NC(=O)[C@@H](NC(=O)[C@H](CCC(=O)O)NC(=O)[C@H](CCCCN)NC(=O)[C@H](CCC(=O)O)NC(=O)[C@H](CC(C)C)NC(=O)[C@H](CC(N)=O)NC(=O)[C@H](CC(=O)O)NC(=O)[C@H](Cc1c[nH]c2ccccc12)NC(=O)[C@H](Cc1ccccc1)NC(=O)[C@H](CCC(=O)O)NC(=O)[C@H](CCC(N)=O)NC(=O)[C@@H](NC(=O)[C@@H](NC(=O)[C@@H]1CCCN1C(C)=O)C(C)C)[C@@H](C)O)[C@@H](C)O)C(=O)N[C@@H](CO)C(=O)N1CCC[C@H]1C(=O)N[C@@H](C)C(=O)N[C@@H](CC(C)C)C(=O)N[C@@H](CCC(=O)O)C(=O)N[C@@H](CC(=O)O)C(=O)N[C@@H](CC(C)C)C(=O)N[C@@H](CCCNC(=N)N)C(=O)N[C@@H](CCC(N)=O)C(=O)NCC(=O)N[C@@H](CC(C)C)C(=O)N[C@@H](CC(C)C)C(N)=O [Helical peptide 2/9] (Ac-PVTQEFWDNLEKETEGLRQEMSPALEDLRQGLL-NH2) | failed to stimulate ABCA1-dependent cholesterol efflux | 19 |  |  |
| CSCC[C@H](NC(=O)[C@H](CCC(=O)O)NC(=O)[C@H](CCC(N)=O)NC(=O)[C@H](CCCNC(=N)N)NC(=O)[C@H](CC(C)C)NC(=O)CNC(=O)[C@H](CCC(=O)O)NC(=O)[C@@H](NC(=O)[C@H](CCC(=O)O)NC(=O)[C@H](CCCCN)NC(=O)[C@H](CCC(=O)O)NC(=O)[C@H](CC(C)C)NC(=O)[C@H](CC(N)=O)NC(=O)[C@H](CC(=O)O)NC(=O)[C@H](Cc1c[nH]c2ccccc12)NC(=O)[C@H](Cc1ccccc1)NC(=O)[C@H](CCC(=O)O)NC(=O)[C@H](CCC(N)=O)NC(=O)[C@@H](NC(=O)[C@@H](NC(=O)[C@@H]1CCCN1C(C)=O)C(C)C)[C@@H](C)O)[C@@H](C)O)C(=O)N[C@@H](CO)C(N)=O [Helical peptide 2] (Ac-PVTQEFWDNLEKETEGLRQEMS-NH2) |  | 17 |  |  |
| CSCC[C@H](NC(=O)[C@H](CCC(=O)O)NC(=O)[C@H](CCC(=O)O)NC(=O)[C@H](CCC(N)=O)NC(=O)[C@H](Cc1c[nH]c2ccccc12)NC(=O)[C@H](CCCCN)NC(=O)[C@H](CCCCN)NC(=O)[C@H](CCC(N)=O)NC(=O)[C@H](Cc1ccccc1)NC(=O)[C@H](CC(=O)O)NC(=O)[C@H](CC(=O)O)NC(=O)[C@H](CC(C)C)NC(=O)[C@H](Cc1ccc(O)cc1)NC(=O)[C@@H]1CCCN1C(C)=O)C(=O)N[C@@H](CCC(=O)O)C(=O)N[C@@H](CC(C)C)C(=O)N[C@@H](Cc1ccc(O)cc1)C(=O)N[C@@H](CCCNC(=N)N)C(=O)N[C@@H](CCC(N)=O)C(=O)N[C@@H](CCCCN)C(=O)N[C@H](C(=O)N[C@@H](CCC(=O)O)C(=O)N1CCC[C@H]1C(=O)N[C@@H](C)C(=O)N[C@@H](CC(C)C)C(=O)N[C@@H](CCC(=O)O)C(=O)N[C@@H](CC(=O)O)C(=O)N[C@@H](CC(C)C)C(=O)N[C@@H](CCCNC(=N)N)C(=O)N[C@@H](CCC(N)=O)C(=O)NCC(=O)N[C@@H](CC(C)C)C(=O)N[C@@H](CC(C)C)C(N)=O)C(C)C [Helical peptide 4/9] (Ac-PYLDDFQKKWQEEMELYRQKVEPALEDLRQGLL-NH2) | failed to mediate ABCA1-dependent cholesterol efflux |  |  |  |
| CC(=O)N1CCC[C@H]1C(=O)N[C@@H](C)C(=O)N[C@@H](CC(C)C)C(=O)N[C@@H](CCC(=O)O)C(=O)N[C@@H](CC(=O)O)C(=O)N[C@@H](CC(C)C)C(=O)N[C@@H](CCCNC(=N)N)C(=O)N[C@@H](CCC(N)=O)C(=O)NCC(=O)N[C@@H](CC(C)C)C(=O)N[C@@H](CC(C)C)C(N)=O [Helical peptide 9] (Ac-PALEDLRQGLL-NH2) | failed to stimulate ABCA1-dependent cholesterol efflux |  | failed to prevent ABCA1 degradation |  |
| CC(=O)N1CCC[C@H]1C(=O)N[C@H](C(=O)N[C@@H](CC(C)C)C(=O)N[C@@H](CCC(=O)O)C(=O)N[C@@H](CO)C(=O)N[C@@H](Cc1ccccc1)C(=O)N[C@@H](CCCCN)C(=O)N[C@H](C(=O)N[C@@H](CO)C(=O)N[C@@H](Cc1ccccc1)C(=O)N[C@@H](CC(C)C)C(=O)N[C@@H](CO)C(=O)N[C@@H](C)C(=O)N[C@@H](CC(C)C)C(=O)N[C@@H](CCC(=O)O)C(=O)N[C@@H](CCC(=O)O)C(=O)N[C@@H](Cc1ccc(O)cc1)C(=O)N[C@H](C(=O)N[C@@H](CCCCN)C(=O)N[C@@H](CCCCN)C(=O)N[C@@H](CC(C)C)C(=O)N[C@@H](CC(N)=O)C(=O)N1CCC[C@H]1C(=O)N[C@@H](C)C(=O)N[C@@H](CC(C)C)C(=O)N[C@@H](CCC(=O)O)C(=O)N[C@@H](CC(=O)O)C(=O)N[C@@H](CC(C)C)C(=O)N[C@@H](CCCNC(=N)N)C(=O)N[C@@H](CCC(N)=O)C(=O)NCC(=O)N[C@@H](CC(C)C)C(=O)N[C@@H](CC(C)C)C(N)=O)[C@@H](C)O)C(C)C)C(C)C [Helical peptide 10/9] (Ac-PVLESFKVSFLSALEEYTKKLNPALEDLRQGLL-NH2) | failed to stimulate ABCA1-dependent cholesterol efflux |  | failed to prevent ABCA1 degradation |  |
| ARMEEMGSRTRDRLDEVKEQVAEVRAKLEEQAQQIRLQAEAFQARLKSWFEPLVEDMQRQWAGLVEKVQAAVGTSAAPVPSDNH (protein, apolipoprotein Apo E, C-terminal domain (aa216-299), C-terminal domain, amino acid residues 216-299 of Apo E) ARMEEMGSRTRDRLDEVKEQVAEVRAKLEEQAQQIRLQAEAFQARLKSWFEPLVEDMQRQWAGLVEKVQAAVGTSAAPVPSDNH |  |  |  | ABCA1-dependent cholesterol efflux (result in words) (ABCA1 [1]; listed as C-terminal domain of apoE): potent stimulator of cholesterol efflux; ABCA1-dependent cholesterol efflux (result in words) (ABCA1 [1]; listed as CT domain): more effective than full-length apoE3 |
